The values below come from US9433577B2, “Pharmaceutical composition comprising oligopeptides” (Merck Patent GmbH, priority 2009, dated 2016).

≈ marks a conversion by molar mass, not a printed value.

By solubility is commonly meant the dissolved amount per volume that the medium holds. Read a high solubility as a readily soluble substance. Usually Solubility stands for the dissolved amount per volume that the medium holds. Higher therefore signals much dissolved substance.

Series [1] can be described thus: Pharmacokinetic study in monkeys. The note with it: in vivo, Cynomolgus monkey, animal 583, dose 11.8 mg/kg, suspension Cilengitide 300 mg/mL + DMPG 2 mg/mL, read-out: MSC1097999. The protocol:
• Composition (Suspension) administered • Cilengitide: 300 mg/mL • DMPG: 2 mg/mL • Phenol: 0.5% • NaCl: 0.9% • Species/strain and number of animals • Monkey, Cynomolgus • Dose: 12 mg/kg (40 μL suspension/kg) • Sampling time points: 0.25, 0.5, 2, 4, 8 hours post dose: […]

Series [2] can be described thus: Saturation solubility of Cilengitide solid forms in water and solvents. Type of series: physicochemical. As for the experimental part: Solubility in this regard is preferably refers to the saturation solubility, which is preferably the maximum mass of the respective compound, which can be solubilised or dissolved in a solvent at a respective temperature and at a specific pressure, preferably atmospheric pressure.
10 mL of solvent is placed in an amber glass ampul and sufficient substance is added to yield a distinct sediment that remains on the bottom after mixing thoroughly. After standing for 15 minutes and mixing again the ampuls are sealed and shaken in a thermostatically controlled water bath (20° C./16 hours or 25° C./16 hours, preferably 20° C./16 hours). Afterwards the ampuls are opened and the supernatant solution is filtered until the filtrate is clear. The content of the substance is determined photometrically in an aliquot by means of the specific adsorption coefficient. The respective dilution of the solvent without substance serves as blank. The solubility is expressed in the dimension of g substance in 100 mL or mg substance in 1 mL, preferably in mg substance in 1 mL. Preferably, this method is performed at normal atmospheric pressure and especially at the standardised “normal” atmospheric pressure, i.e. 1 atm=1.01325 bar.

A short description of series [3]: Thermodynamic stability of crystalline forms (slurry / vapour atmosphere). Type of series: physicochemical. From the text:
Wetted material in this regard is preferably a mixture of the respective anhydrate with at least 5% by weight, more preferably at least 10% by weight and especially 20% by weight, of the respective aqueous system.
Upon water vapour adsorption, an assembly of water molecules in the lattice is observed, with a maximum weight gain of approx. 6.4 wt % at elevated rh. In the second desorption cycle a total mass loss of approx. 9.2 wt % is observed. For a Dihydrate Di-Ethanolate of the compound of formula Id, the calculated Ethanol content equals 12.5 wt %.
Also the pure form A1 can be manufactured by competitive slurry conversion experiments with a mixture of a pseudopolymorphic form (for example S1, S2, S3 or mixtures of these) and A1 (1:1) in Acetone, Acetonitrile, Isopropanol, physiological NaCl solution, Phosphate buffer (pH 7.4) and 1:1 (v:v) mixtures of Acetone, Acetonitrile, Isopropanol with Water at RT (25° C.).
Approx. 20 mg of a pseudopolymorphic form (for example S1, S2, S3 or mixtures of these) and 20 mg of form A1 of Cilengitide are dispersed in 200-700 μl solvent at room temperature. The dispersion is stirred for 5 days and additionally 26 days (long-term experiment) at RT (25° C.) by a magnetic stirrer and finally filtered. […]

The nature of series [4]: Dynamic vapour experiments (Water Vapour Sorption, 25° C.). The format is physicochemical. The note with it: for mass loss in the first desorption cycle / initial drying step (0% rh) / total mass loss in the second desorption cycle: Water Vapour Sorption; for maximum weight gain upon water vapour adsorption (assembly of water molecules in the lattice): at elevated rh.
Text: (§1) A SMS DVS Intrinsic is used for the dynamic vapour experiments. The results are obtained by standard techniques as described in Rolf Hilfiker, ‘Polymorphism in the Pharmaceutical Industry’, Wiley-VCH. Weinheim 2006 (Chapter 9: Water Vapour Sorption, and references therein). […] Upon water vapour adsorption, an assembly of water molecules in the lattice is observed, with a maximum weight gain of approx. 8 wt % at elevated rh. In the second desorption cycle a total mass loss of approx. 9.9 wt % is observed. For a Cilengitide Dihydrate Di-Methanolate, the calculated Methanol content equals 9.3 wt %.
as §1, with “6.4” for “8”, “9.2” for “9.9”, “Di-Ethanolate,” for “Di-Methanolate,”, “Ethanol” for “Methanol”, “12.5” for “9.3”

Regarding `CC(C)[C@H]1C(=O)N[C@@H](CCCN=C(N)N)C(=O)NCC(=O)N[C@@H](CC(=O)O)C(=O)N[C@H](Cc2ccccc2)C(=O)N1C` [MSC1097999], in series [1] (0.250 h), the level at 0.25 h stood at 586 ng/mL. The level at 0.5 h in series [1] (0.500 h) worked out at 967 ng/mL. In addition, in series [1] (2.00 h), the level at 2 h was 892 ng/mL. The level at 4 h in series [1] (4.00 h) worked out at 605 ng/mL. In series [1] (8.00 h), the level at 8 h was found to be 537 ng/mL.
`CC(C)[C@H]1C(=O)N[C@@H](CCCNC(=N)N)C(=O)NCC(=O)N[C@@H](CC(=O)O)C(=O)N[C@H](Cc2ccccc2)C(=O)N1C` [crystalline form A1, cyclo-(Arg-Gly-Asp-DPhe-NMeVal)] showed a solubility at 16 h in series [2] (water, at 20° C. or 25° C., preferably at 20° C.) of about 7000 µg/mL (≈ 11.9 mM). Also, in series [3] (in the presence of aqueous based solvents, absence of methanol and/or ethanol), the “thermodynamic stability of the form” value is listed as “thermodynamically stable form”. Moreover, the “hygroscopicity classification acc. to Ph. Eur. criteria” value in series [4] (water uptake up to 98% relative humidity) is “non-hygroscopic”.
`CC(C)[C@H]1C(=O)N[C@@H](CCCNC(=N)N)C(=O)NCC(=O)N[C@@H](CC(=O)O)C(=O)N[C@H](Cc2ccccc2)C(=O)N1C` [tetrahydrate Form S3, cyclo-(Arg-Gly-Asp-DPhe-NMeVal)]: the Solubility in series [2] (solvent H2O/Acetone (1:1)) is 22700 µg/mL. In series [4], the “mass loss in the first desorption cycle / initial drying step (0% rh)” value is listed as “ca. 9 wt %” and the “maximum weight gain upon water vapour adsorption (assembly of water molecules in the lattice)” value is “ca. 10 wt %”.
In the case of “cyclo-(Arg-Gly-Asp-DPhe-NMeVal) [form S1]”, in series [4], the “mass loss in the first desorption cycle / initial drying step (0% rh)” value was “approx. 8 wt %”, the “total mass loss in the second desorption cycle” value (shortened to “total mass loss”) was “approx. 9.9 wt %” and the “maximum weight gain upon water vapour adsorption (assembly of water molecules in the lattice)” value is “approx. 8 wt %”.
Regarding “cyclo-(Arg-Gly-Asp-DPhe-NMeVal) [form S2]”, in series [3] (atmosphere of 100% Ethanol vapour), the “thermodynamic stability of the form” value is on record as “thermodynamically stable form”. Further, in series [4], the “mass loss in the first desorption cycle / initial drying step (0% rh)” value was “approx. 6.5 wt %”, the “total mass loss” value was “approx. 9.2 wt %” and the “maximum weight gain upon water vapour adsorption (assembly of water molecules in the lattice)” value is recorded as “approx. 6.4 wt %”. For the same compound, in series [4] (listed as crystalline form S2), the “mass loss in the first desorption cycle / initial drying step (0% rh)” value is recorded as “approx. 6.5 wt %”, the “total mass loss” value is on record as “approx. 9.2 wt %” and the “maximum weight gain upon water vapour adsorption (assembly of water molecules in the lattice)” value is “approx. 6.4 wt %”.
